The record followed here is patent US20130190370A1, “Novel Tetrahydronaphalene Antagonists to the Thromboxane A2 (TP) Receptor” (The Trustees of the University of Pennsylvania, priority 2010, published 2013).

Data set [1] in a line: Brain and plasma compound levels by LC-MS/MS after 5 mg/kg i.p. injection into mice. The procedure:
One-month old B6C3HF1 female mice were given intraperitoneal injections of compounds at 5 mg/kg. 1 hour after injection, mice were lethally anesthetized with an intraperitoneal injection of ketamine hydrochloride (1 mg/10 g) and xylazine (0.1 mg/10 g) and perfused intracardially with PBS in accordance with protocols approved by the University of Pennsylvania.
Brain samples were homogenized in 10 mM ammonium acetate, pH 5.7 (1:2; w/v) using a handheld sonic homogenizer. Compound from 50 μL of brain homogenate or plasma was extracted with 200 μL acetonitrile, centrifuged, and the supernatant removed for LC/MS/MS analysis. Compounds were detected using multiple reaction monitoring (MRM) of their specific collision-induced ion transitions and quantified using peak areas.
The LC/MS/MS system was comprised of an Agility UPLC, a TQ MS, and controlled using MassLynx software (Waters Corporation, Milford, Mass., USA). Samples were separated on an Aquity BEH C18 column (1.7 μm, 2.1×50 mm) at 35° C. For operation in positive electrospray ionization mode, the mobile phase A was 0.1% (v/v) formic acid, and B was either acetonitrile or methanol with 0.1% (v/v) formic acid. For operation in negative electrospray ionization mode, the mobile phase A was 10 mM ammonium acetate, and B was methanol with 10 mM ammonium acetate, Injections of 5 μL were separated at a flow rate of 0.6 mL/min using a gradient from 5% to 95% B over two minutes followed by wash and re-equilibration steps.
The MS was operated with a desolvation temperature of 450° C. and a source temperature of 150° C. Desolvation and source nitrogen gas flows were 900 L/hr and 50 L/hr, respectively. Collision cell argon gas flow was 0.1 mL/min. Source and analyzer voltages were optimized for each compound using the MassLynx auto tune utility. Compound standards at 1000 ng/mL in 50% acetonitrile were infused at 30 μL/min and combined with flow from the UPLC at 0.6 mL/min and 50% B.
Standard curves were generated from spiked brain homogenate and plasma prepared at 4, 40, 400 and 4000 ng/mL and extracted as above. Peak area was plotted versus concentration and a 1/x weighted linear regression curve was used to quantify the unknowns using the average peak area from triplicate injections,
The following experiments were designed to analyze TP receptor antagonists to determine their relative BBB penetration. The TP receptor antagonists were administered via i.p. injection at 5 mg/kg to normal mice, and brain and plasma compound concentrations were assessed by LC-MS/MS at 1 and 4 hours after dosing.
To examine the blood-brain barrier permeability of these compounds, one-month old B6C3F1 mice were injected at 5 mg/kg and sacrificed 1 hour after injection.

The target in data set [2] is T1, mouse TP receptor (Mus musculus, UniProt P30987).
T1 construct: expressed in transfected cells
T1 sequence (P30987 1-341): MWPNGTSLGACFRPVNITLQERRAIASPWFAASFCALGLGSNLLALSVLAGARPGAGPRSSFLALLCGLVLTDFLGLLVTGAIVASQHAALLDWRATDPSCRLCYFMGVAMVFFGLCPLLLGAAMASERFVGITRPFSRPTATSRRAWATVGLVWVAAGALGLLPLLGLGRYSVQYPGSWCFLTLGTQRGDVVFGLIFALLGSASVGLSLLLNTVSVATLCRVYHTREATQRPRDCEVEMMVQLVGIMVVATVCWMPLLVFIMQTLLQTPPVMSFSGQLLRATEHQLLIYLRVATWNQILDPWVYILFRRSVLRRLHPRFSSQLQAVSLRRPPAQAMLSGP
Description: Radioligand binding assay (3H-SQ29,548), mouse TP receptor. The note with it: mTP receptor. On the procedure: (§1) QBI-HEK 293A cells expressing human or mouse TxA2 (TP) receptor were grown as described previously and harvested in phosphate-buffered saline with 1 mM EDTA. The cell pellet was homogenized in a glass homogenizer in 20 mM Hepes, 1 mM EGTA, 0.5 mM DTT with protease inhibitor cocktail. The homogenate was initially centrifuged at 1000×g for 10 minutes at 8° C. to remove cell debris. The homogenate was then centrifuged in a Beckman L8-70M ultracentrifuge (Beckman-Coulter, Brea, Calif., USA) at 21,000 rpm for 30 minutes at 4° C., and the pellet was resuspended in 20 mM Hepes, 1 mM EGTA, 100 mM NaCl. Membrane preparations were normalized to protein level as determined with a BCA assay (ThermoFisher, Rockland, Ill.) and stored at −80° C.
(§2) Test antagonists were incubated at 10 different concentrations with 25 μg membrane and 25 nM ^3H-SQ29,548 (PerkinElmer, Waltham, Mass., USA) in 50 mM Tris, 4 mM CaCl2, 0.1% ascorbic acid pH 7.5 for 2 hours at 25° C. in 96-well polystyrene plates. Separation of bound from free radioligand was accomplished by rapid vacuum filtration onto 96-well GF/B filter plates (PerkinElmer, Waltham, Mass., USA). Filters were washed 8 times in 50 mM Tris, pH 6.9 and allowed to dry for 16 hours, Plates were sealed and filters dissolved in 50 μL Betaplate Scintillation fluid (PerkinElmer, Waltham, Mass., USA) and read on a scintillation counter. Data are presented as percent total binding as calculated by a minimum of 3 wells containing membrane and ^3H-SQ29,548 without antagonist.
(§3) Equilibrium dissociation constants (Kd), IC50, and Schild regression analyses was performed with GraphPad Prism software (GraphPad Software Inc., La Jolla, Calif., USA).
(§4) To facilitate the characterization of the new compounds, cell-based TP receptor functional assays were optimized. HEK293 clones have been produced that stably express the human (hTP) or mouse (mTP) TP receptor (a isoform), and treatment of these clones with I-BOP ([1S-[1α,2α(Z),3β(1E,3S*),4α]]-7-[3-[3-hydroxy-4-(4-iodophenoxy)-1-butenyl]-7-oxabicyclo[2.2.1]hept-2-yl]-5-heptenoic acid) results in increased production of inositol triphosphate (IP3) (Knezevic, et al., 1993, Blood 82:A156; Shenker, et al., 1991, J Biol Chem 266:9309-9313; Huang, et al., 2004, Cell Signal 16:521-533) which can be quantified by measuring the breakdown product, inositol monophosphates (IP1), using a commercial time-resolved fluorescence assay. […] A radioligand binding assay was also developed to allow for the determination of binding affinities of compounds at the hTP and mTP receptors.

The target of data set [3] is T2, human TP receptor (Homo sapiens, UniProt P21731).
T2 construct: expressed in transfected cells
T2 sequence (P21731 1-343): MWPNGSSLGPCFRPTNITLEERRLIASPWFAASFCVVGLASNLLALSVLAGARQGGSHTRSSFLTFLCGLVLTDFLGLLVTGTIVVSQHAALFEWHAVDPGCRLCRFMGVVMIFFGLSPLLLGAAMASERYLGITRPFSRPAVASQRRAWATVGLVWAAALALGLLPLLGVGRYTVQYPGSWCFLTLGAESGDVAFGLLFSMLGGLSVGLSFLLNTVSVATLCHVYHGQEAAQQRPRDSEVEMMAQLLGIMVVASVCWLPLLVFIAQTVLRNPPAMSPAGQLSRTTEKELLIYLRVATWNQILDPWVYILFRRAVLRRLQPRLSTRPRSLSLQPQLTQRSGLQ
Description: Radioligand binding assay (3H-SQ29,548), human TP receptor. The settings on record: hTP receptor. The procedure:
as §1, §2, §3, §4

The nature of data set [4]: Unbound fractions in plasma and brain homogenates by equilibrium dialysis. It is filed as in vitro ADME. The text has this:
Without wishing to be bound by any particular theory, it is believed that it is possible (although uncommon) for a BBB-permeable compound to have a very low B/P ratio if the fraction of free, unbound drug is much greater in the […]. More specifically, a drug that is freely diffusible across the BBB will at equilibrium have a free drug B/P ratio (B/Pfree)=1, where B/Pfree=B/P×fu(brain))/fu(plasma) (Maurer, et al., 2005, Drug Metab Dispos. 33:175-181; Kalvasset al., 2007, Drug Metab Dispos. 35:660-666) and fti represents unbound drug fractions. […] To ensure that the low B/P ratios obtained with the TP antagonists of Table 1 were truly reflective of poor BBB permeability, the unbound fractions in plasma and brain homogenates were measured using established equilibrium dialysis methods (Maurer, et al., 2005, Drug Metab Dispos. 33:175-181; Kalvasset al., 2007, Drug Metab Dispos. 35:660-666; Friden, et al., 2007, Drug Metab Dispos. 35:1711-1719). […] This is further illustrated by comparing the calculated B/Pfree ratios (Table 1), which are <<1. Because the existing repertoire of TP receptor antagonists share common structural features, including free carboxylate moieties, it is highly unlikely that any of these existing compounds would be sufficiently brain-penetrant to be potential AD therapeutics.

Data set [5] in a line: Pro-drug study: plasma levels of compound and carboxylic acid hydrolysis product (51280) by LC-MS/MS. The class given is in vivo. The note with it: female mice, 5 mg/kg, 1 h after injection. On the procedure:
Ester and amide examples can serve as pro-drugs to release the potent carboxylic acid TP receptor antagonist CNDR-51280. Compounds in were administered at 5 mg/kg to female mice, and levels of the compound and the carboxylic acid hydrolysis product (51280) were evaluated by LC-MS/MS 1 h after injection (Table 3).

Setting [6] is: female, B6C3HF1, mouse, brain/plasma (unbound), ip, 5 mg/kg.
[7] abbreviates: female, B6C3HF1, mouse, brain/plasma, ip, 5 mg/kg.
Where [8] appears, read: mice, 5 mg/kg i.p., 1 h after dosing.
The mark [9] stands for this setting: mice, 5 mg/kg i.p., 4 h after dosing.

Take `O=S(=O)(NC1CCc2c(CCc3nn[nH]n3)cccc2C1)c1ccc(Cl)cc1` (centres unmarked) [Compound 51279, N-(5-(2-(2H-Tetrazol-5-yl)ethyl)-1,2,3,4-tetrahydronaphthalen-2-yl)-4-chlorobenzenesulfonamide]: the “brain penetration / brain levels of the drug” value in data set [1] (B6C3F1 mice, 5 mg/kg, 1 hour after injection) is on record as “very little brain penetration”. Besides, the “affinity for TP receptor” value in data set [2] is reported as “most tolerable substitutions”; in data set [2] (listed as CNDR-51279), “well tolerated”; in data set [3] it was “most tolerable substitutions”; in data set [3] (listed as CNDR-51279), “well tolerated”.

For `O=C(O)Cc1ccc(CCNS(=O)(=O)c2ccc(Cl)cc2)cc1` [Daltroban], the concentration at 1 h in data set [1] (female, B6C3HF1, mouse, brain, ip, 5 mg/kg, Brain, mice, 5 mg/kg i.p., 1 h after dosing) was found to be 133 ng/mL; in data set [1] (female, B6C3HF1, mouse, plasma, ip, 5 mg/kg, Plasma, mice, 5 mg/kg i.p., 1 h after dosing), 6450 ng/mL. For the same compound, the concentration at 4 h in data set [1] (female, B6C3HF1, mouse, brain, ip, 5 mg/kg, Brain, mice, 5 mg/kg i.p., 4 h after dosing) is 55.9 ng/mL; in data set [1] (female, B6C3HF1, mouse, plasma, ip, 5 mg/kg, Plasma, mice, 5 mg/kg i.p., 4 h after dosing), 1790 ng/mL. Moreover, the figures for the Kp at 1 h in data set [1] (setting [6]) and in data set [1] (setting [7]) were 0.04 and 0.02, respectively. The results for the Kp at 4 h in data set [1] (setting [6]) and in data set [1] (setting [7]) were 0.06 and 0.03, respectively. In data set [4] (brain homogenate, equilibrium dialysis, read-out: fu(brain) (fraction unbound)), the fraction unbound turned out to be 0.221. Also, in data set [4] (plasma and brain homogenate, ratio of unbound fractions plasma/brain, read-out: fu(pl)/fu(br)), the plasma/brain unbound fraction ratio was found to be 0.52.

Take `O=S(=O)(NC1CCc2c(CCC3OCCO3)cccc2C1)c1ccc(Cl)cc1` (centres unmarked) [Compound 51414]: the “brain penetration / brain levels of the drug” value is “greatly increased brain levels of the drug” in data set [1] (B6C3F1 mice, 5 mg/kg, 1 hour after injection; 5 mg/kg) and “brain-penetrant” in data set [1] (B6C3F1 mice, 5 mg/kg, 1 hour after injection; listed as CNDR-51414, 5 mg/kg).

Take `O=C(CCc1cccc2c1CCC(NS(=O)(=O)c1ccc(Cl)cc1)C2)NCC(F)(F)F` (centres unmarked) [Compound 51418, 3-(6-(4-Chlorophenylsullfonamido)-5,6,7,8-tetrahydronaphthalen-1-yl)-N-(2,2,2-trifluoroethyl)-propanamide]: the “affinity for TP receptor” value in data set [2] and in data set [3] was “most tolerable substitutions” throughout. The “Plasma (compound)” value in data set [5] is 109 (+/− 45) nM. The “XCOOH Plasma (carboxylic acid hydrolysis product 51280)” value in data set [5] was 100 (+/− 43) nM.

With `CCCCCNC(=O)NS(=O)(=O)c1cc([N+](=O)[O-])ccc1NC1CCCCC1` [BM567], the “B/P (brain-to-plasma ratio)” value is 0.01 in data set [1] (mice, 5 mg/kg i.p., 1 h) and 0.01 in data set [1] (mice, 5 mg/kg i.p., 4 h). Moreover, the figures for the Brain in data set [1] (setting [8]) and in data set [1] (setting [9]) were 40.2 ± 12.3 ng/mL and 18.5 ± 7.8 ng/mL, respectively. Also, the Plasma was determined as 3600 ± 923 ng/mL in data set [1] (setting [8]) and 2248 ± 1400 ng/mL in data set [1] (setting [9]). In addition, in data set [4] (plasma, equilibrium dialysis), the “fu(plasma) (fraction unbound)” value is on record as 0.004 +/− 0.001. In data set [4] (ratio of unbound fractions plasma/brain), the “fu(pl)/fu(br)” value is 0.20.
